Active and inactive are the calls of the source. The calls are words filed in the database; no cut-off is given here.
Experiments:
[1] = molecular target: Serine/threonine-protein kinase 4 (Homo sapiens) (UniProt Q13043); experiment: Inhibition of MST1 Lys1 labeling site harbouring ETGQIVAIKQVPVESDLQEIIK in human Huh-7 cells at 1 uM by KiNativ Profiling analysis relative to control
[2] = molecular target: Microtubule-associated serine/threonine-protein kinase 1 (Homo sapiens) (UniProt Q9Y2H9); experiment: Inhibition of MAST1 Lys2 labeling site in human Huh-7 cells at 1 uM by KiNativ Profiling analysis relative to control
[3] = Inhibition of KHS2 Lys1 labeling site in human Huh-7 cell lysate at 1 uM by KiNativ Profiling analysis relative to control; details: condition cancer
[4] = molecular target: Tyrosine-protein kinase CSK (Homo sapiens, UniProt P41240); experiment: Inhibition of CSK ACT labeling site harbouring EASSTQDTGKLPVKWTAPEALR in human Huh-7 cell lysate at 1 uM by KiNativ Profiling analysis relative to control; assay type: subcellular
[5] = molecular target: Casein kinase I isoform epsilon (Homo sapiens) (UniProt P49674); experiment: Inhibition of CSNK1E (unknown origin) at 10 uM by Ambit Kinomescan binding assay
[6] = molecular target: Mitogen-activated protein kinase kinase kinase kinase 4 (Homo sapiens, UniProt O95819); experiment: Inhibition of ZC1/HGK K1 labeling site harbouring TGQLAAIKVMDVTEDEEEEIKLEINMLKK in human Huh-7 cells at 10 uM by KiNativ Profiling analysis relative to control; assay type: cell-based
[7] = molecular target: T1, Mitogen-activated protein kinase kinase kinase 15 (Homo sapiens) (UniProt Q6ZN16); experiment: Inhibition of MAP3K15 Lys1 labeling site harbouring IAIKEIPER in human A-375 cells at 5 uM by KiNativ Profiling analysis relative to control; assay type: cell-based
T1 sequence (whole entry): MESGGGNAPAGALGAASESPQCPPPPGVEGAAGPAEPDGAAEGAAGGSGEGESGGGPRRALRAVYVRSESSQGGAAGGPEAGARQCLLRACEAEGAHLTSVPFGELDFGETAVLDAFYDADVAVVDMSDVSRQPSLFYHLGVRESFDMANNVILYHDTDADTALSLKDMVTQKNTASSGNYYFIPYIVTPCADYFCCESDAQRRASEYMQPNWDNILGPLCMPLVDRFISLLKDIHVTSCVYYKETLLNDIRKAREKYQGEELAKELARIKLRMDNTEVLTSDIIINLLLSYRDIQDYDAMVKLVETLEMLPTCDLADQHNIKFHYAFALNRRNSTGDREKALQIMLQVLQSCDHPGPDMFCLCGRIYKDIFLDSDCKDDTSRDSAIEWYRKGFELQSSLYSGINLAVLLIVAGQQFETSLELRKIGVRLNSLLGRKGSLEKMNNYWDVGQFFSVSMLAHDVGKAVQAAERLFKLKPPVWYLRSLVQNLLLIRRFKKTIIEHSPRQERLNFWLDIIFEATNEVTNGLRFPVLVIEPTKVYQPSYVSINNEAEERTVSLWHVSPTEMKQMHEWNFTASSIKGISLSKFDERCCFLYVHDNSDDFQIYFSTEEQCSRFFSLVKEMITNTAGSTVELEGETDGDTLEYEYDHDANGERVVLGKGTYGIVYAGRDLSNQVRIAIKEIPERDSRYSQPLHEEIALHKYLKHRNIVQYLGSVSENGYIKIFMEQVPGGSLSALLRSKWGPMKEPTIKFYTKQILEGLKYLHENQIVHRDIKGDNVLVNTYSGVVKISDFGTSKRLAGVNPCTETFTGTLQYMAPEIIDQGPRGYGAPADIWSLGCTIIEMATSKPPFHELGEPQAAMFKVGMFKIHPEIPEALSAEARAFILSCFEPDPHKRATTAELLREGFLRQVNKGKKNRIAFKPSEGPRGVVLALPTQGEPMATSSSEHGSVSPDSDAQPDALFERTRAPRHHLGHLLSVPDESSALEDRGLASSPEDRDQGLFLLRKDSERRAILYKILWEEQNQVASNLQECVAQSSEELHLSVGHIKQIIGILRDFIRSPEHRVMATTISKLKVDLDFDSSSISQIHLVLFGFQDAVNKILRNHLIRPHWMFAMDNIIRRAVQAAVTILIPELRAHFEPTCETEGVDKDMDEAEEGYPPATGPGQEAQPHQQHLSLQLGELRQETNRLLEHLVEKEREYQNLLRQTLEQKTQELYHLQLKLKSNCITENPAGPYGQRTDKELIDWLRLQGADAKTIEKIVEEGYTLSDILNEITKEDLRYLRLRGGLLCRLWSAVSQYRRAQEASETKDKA

[8] = molecular target: Dual specificity tyrosine-phosphorylation-regulated kinase 1A (Homo sapiens) (UniProt Q13627); experiment: Inhibition of DYRK1A (unknown origin) at 1 uM by Ambit Kinomescan binding assay relative to control; values are per cent of control
[9] = molecular target: Calcium/calmodulin-dependent protein kinase type II subunit gamma (Homo sapiens) (UniProt Q13555); experiment: Inhibition of CaMK2g Lys1 labeling site harbouring TSTQEYAAKIINTK in human A-375 cells at 5 uM by KiNativ Profiling analysis relative to control; assay type: cell-based
[10] = molecular target: Tyrosine-protein kinase receptor Tie-1 (Homo sapiens) (UniProt P35590); experiment: Inhibition of TIE1 (unknown origin) at 1 uM by Ambit Kinomescan binding assay relative to control
[11] = molecular target: T2, Phosphatidylinositol 5-phosphate 4-kinase type-2 gamma (Homo sapiens) (UniProt Q8TBX8); experiment: Inhibition of PIP4K2C ATP labeling site harbouring TLVIKEVSSEDIADMHSNLSNYHQYIVK in human A-375 cells at 0.5 uM by KiNativ Profiling analysis relative to control; assay type: cell-based
T2 sequence (whole entry): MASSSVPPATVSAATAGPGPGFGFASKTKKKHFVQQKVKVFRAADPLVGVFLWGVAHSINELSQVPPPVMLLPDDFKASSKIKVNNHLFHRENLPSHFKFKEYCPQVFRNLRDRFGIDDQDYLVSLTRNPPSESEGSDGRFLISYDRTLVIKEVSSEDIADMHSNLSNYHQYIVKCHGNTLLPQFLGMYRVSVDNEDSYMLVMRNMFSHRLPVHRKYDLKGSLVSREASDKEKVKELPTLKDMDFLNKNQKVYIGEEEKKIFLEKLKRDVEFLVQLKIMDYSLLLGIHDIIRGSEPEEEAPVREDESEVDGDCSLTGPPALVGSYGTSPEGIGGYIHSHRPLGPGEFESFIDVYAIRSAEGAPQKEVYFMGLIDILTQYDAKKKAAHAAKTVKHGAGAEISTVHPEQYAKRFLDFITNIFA

[12] = molecular target: Serine/threonine-protein kinase MARK1 (Homo sapiens) (UniProt Q9P0L2); experiment: Inhibition of MARK1 (unknown origin) at 1 uM by Ambit Kinomescan binding assay relative to control; values are per cent of control

Chain of Tyrosine-protein kinase receptor Tie-1 (Homo sapiens) (P35590 whole entry): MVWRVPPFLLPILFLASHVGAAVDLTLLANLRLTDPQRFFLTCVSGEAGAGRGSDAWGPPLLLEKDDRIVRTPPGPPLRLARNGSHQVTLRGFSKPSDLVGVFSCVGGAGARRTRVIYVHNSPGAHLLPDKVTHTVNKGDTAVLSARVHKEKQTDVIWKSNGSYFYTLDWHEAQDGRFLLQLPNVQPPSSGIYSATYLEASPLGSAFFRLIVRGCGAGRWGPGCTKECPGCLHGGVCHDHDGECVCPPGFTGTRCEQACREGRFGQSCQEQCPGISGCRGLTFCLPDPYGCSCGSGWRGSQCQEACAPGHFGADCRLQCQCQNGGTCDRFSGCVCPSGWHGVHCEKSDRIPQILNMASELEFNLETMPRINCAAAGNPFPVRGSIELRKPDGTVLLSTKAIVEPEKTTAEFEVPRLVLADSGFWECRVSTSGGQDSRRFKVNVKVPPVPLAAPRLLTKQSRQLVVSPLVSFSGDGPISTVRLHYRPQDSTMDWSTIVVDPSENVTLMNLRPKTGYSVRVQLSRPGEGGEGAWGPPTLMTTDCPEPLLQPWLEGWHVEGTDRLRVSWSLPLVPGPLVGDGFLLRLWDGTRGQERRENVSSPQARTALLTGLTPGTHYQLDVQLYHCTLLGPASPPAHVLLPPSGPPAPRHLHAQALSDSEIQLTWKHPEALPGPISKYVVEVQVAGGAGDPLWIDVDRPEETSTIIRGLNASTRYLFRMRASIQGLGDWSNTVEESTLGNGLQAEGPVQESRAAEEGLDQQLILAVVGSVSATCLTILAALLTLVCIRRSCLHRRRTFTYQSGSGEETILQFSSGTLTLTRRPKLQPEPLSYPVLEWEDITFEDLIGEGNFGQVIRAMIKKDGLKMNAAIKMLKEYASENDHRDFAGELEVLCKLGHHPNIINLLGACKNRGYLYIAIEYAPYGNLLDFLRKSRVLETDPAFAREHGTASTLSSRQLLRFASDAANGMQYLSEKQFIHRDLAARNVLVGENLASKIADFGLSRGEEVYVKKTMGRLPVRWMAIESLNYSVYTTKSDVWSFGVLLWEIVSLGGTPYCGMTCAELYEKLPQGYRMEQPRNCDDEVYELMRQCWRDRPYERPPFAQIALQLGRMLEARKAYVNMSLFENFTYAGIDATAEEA
Chain of Tyrosine-protein kinase CSK (P41240 2-450 limits assumed): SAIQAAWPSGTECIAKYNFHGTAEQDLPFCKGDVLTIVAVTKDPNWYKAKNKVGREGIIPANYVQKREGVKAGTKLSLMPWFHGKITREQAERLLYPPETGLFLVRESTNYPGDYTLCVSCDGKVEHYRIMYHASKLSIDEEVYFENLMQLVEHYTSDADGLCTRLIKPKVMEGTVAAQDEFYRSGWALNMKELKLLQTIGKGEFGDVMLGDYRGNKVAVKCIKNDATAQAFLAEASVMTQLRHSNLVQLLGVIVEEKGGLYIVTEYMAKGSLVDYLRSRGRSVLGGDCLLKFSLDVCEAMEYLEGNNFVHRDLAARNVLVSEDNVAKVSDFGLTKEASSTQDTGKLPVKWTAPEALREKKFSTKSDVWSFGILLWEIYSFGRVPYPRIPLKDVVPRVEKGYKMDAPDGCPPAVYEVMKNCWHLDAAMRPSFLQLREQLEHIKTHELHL
Chain of Casein kinase I isoform epsilon (Homo sapiens) (P49674 whole entry, looked up, canonical isoform): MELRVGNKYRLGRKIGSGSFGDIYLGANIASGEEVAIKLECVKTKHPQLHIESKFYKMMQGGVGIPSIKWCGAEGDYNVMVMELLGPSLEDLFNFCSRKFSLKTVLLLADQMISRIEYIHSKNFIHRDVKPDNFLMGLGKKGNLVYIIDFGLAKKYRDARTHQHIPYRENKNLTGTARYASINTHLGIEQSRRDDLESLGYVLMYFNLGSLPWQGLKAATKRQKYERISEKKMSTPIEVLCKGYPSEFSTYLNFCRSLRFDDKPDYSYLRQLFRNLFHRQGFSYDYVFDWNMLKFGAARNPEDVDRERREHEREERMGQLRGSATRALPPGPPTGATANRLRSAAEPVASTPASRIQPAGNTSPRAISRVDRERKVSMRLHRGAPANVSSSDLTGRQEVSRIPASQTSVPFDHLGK
Chain of Mitogen-activated protein kinase kinase kinase kinase 4 (O95819 2-1239 limits assumed): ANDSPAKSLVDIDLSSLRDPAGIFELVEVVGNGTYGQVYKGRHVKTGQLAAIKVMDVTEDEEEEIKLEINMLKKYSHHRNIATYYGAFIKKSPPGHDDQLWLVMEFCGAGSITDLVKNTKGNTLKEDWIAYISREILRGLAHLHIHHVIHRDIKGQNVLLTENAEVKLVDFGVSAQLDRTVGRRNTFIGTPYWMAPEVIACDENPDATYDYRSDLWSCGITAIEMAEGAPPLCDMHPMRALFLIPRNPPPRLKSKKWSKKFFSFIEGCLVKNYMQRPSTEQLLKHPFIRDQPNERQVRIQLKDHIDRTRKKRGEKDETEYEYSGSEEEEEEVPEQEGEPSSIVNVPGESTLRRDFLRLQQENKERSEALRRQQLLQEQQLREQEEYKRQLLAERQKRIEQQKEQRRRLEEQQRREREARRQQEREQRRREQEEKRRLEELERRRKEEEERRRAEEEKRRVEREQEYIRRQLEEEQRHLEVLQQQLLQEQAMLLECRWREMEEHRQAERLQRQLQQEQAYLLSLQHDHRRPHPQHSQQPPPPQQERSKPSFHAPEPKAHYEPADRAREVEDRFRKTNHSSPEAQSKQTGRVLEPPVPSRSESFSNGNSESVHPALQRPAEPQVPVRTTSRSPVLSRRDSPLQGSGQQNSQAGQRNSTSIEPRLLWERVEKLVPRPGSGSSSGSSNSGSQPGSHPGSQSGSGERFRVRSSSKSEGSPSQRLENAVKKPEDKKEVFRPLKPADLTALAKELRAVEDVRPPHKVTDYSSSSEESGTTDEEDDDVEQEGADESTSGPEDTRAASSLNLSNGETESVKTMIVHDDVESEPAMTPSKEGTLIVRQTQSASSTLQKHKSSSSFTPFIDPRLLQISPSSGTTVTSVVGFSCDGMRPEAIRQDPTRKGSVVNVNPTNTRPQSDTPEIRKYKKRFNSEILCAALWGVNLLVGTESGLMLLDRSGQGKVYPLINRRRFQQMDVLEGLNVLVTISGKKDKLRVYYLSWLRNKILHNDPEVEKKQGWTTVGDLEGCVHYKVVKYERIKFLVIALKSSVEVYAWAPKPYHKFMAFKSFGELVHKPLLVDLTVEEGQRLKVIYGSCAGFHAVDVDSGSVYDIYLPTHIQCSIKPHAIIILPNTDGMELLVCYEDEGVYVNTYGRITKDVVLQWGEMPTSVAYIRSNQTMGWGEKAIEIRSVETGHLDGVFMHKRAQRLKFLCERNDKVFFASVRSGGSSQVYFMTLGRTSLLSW
Chain of Microtubule-associated serine/threonine-protein kinase 1 (Homo sapiens) (Q9Y2H9 whole entry, looked up): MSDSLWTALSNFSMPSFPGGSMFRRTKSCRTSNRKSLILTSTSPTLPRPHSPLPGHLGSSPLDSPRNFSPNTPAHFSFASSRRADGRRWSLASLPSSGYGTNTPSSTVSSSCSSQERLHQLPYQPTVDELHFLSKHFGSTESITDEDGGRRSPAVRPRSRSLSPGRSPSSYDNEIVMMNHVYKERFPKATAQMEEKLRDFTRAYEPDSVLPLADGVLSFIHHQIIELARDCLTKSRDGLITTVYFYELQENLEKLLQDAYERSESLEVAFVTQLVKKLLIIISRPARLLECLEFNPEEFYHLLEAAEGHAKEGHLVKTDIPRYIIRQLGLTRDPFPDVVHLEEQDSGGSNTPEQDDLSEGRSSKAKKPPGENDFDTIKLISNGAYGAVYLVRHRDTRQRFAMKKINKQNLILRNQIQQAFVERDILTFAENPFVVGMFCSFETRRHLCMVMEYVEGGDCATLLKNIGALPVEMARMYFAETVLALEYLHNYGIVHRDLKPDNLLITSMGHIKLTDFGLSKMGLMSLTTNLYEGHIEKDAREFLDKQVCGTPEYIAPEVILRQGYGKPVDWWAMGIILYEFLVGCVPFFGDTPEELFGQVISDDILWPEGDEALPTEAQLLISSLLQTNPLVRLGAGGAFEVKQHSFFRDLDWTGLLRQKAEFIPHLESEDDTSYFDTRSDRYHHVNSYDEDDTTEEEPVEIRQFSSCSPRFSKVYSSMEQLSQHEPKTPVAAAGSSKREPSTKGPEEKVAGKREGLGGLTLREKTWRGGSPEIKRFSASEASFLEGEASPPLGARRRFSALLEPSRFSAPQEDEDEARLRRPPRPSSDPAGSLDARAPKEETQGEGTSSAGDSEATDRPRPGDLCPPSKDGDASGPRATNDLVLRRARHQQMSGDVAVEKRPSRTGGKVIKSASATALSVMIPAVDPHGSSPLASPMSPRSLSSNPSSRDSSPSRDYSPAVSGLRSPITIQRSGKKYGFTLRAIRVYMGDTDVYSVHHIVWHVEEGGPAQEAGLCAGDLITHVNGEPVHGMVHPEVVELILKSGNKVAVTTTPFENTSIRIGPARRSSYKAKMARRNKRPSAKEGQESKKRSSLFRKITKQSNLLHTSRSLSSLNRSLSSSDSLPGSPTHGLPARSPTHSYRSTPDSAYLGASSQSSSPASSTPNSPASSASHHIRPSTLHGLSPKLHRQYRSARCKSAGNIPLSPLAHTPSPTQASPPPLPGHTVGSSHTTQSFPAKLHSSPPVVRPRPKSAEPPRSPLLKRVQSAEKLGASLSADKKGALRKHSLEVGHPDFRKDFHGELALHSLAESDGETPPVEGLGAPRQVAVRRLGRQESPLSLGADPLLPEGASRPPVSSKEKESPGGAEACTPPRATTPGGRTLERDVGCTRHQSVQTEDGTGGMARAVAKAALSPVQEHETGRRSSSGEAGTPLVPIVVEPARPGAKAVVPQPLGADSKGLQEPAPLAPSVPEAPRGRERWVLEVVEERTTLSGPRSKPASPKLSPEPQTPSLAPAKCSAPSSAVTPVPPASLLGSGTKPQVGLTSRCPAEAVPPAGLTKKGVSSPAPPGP

CNc1cc(Oc2cc(C(=O)Nc3cc(N4CCN(C)CC4)cc(C(F)(F)F)c3)ccc2C)ncn1
inhibition [1]: 8.9% | inhibition [2]: 53.8% | inhibition at 1 µM [3]: 0.9% | inhibition [4]: 0.4%

CCN1CCN(Cc2ccc(NC(=O)c3ccc(C)c(Oc4ccnc5[nH]ccc45)c3)cc2C(F)(F)F)CC1
inhibition [5]: inactive | inhibition [6]: 75.4% | inhibition [7]: -0.6%

CCN1CCN(Cc2ccc(NC(=O)c3ccc(C)c(/C=C/c4cnc5[nH]ccc5c4OC)c3)cc2C(F)(F)F)CC1
residual activity [8]: 100% | inhibition [9]: 14.6% | inhibition [10]: 0.95% | inhibition [11]: 5.9% | residual activity [12]: 100%

Reference: ChEMBL document CHEMBL5696442, “Discovery of type II inhibitors of TGFβ-activated kinase 1 (TAK1) and mitogen-activated protein kinase kinase kinase kinase 2 (MAP4K2)” (J Med Chem, 2015)
